Measurements from paper PMC4669414 (Scientific Reports, 2015).

Key:
[1] = tested on: PC9/G cells; assay: MTT cell growth inhibition assay in PC9/G cells; settings: 72 h; for effect on cell viability when combined with Gef + Res treatment: 3-MA 5 mM or DEVD 10 nM with Gef 1 μM + Res 40 μM
Protocol: Cell viability was measured by MTT assay. Data are shown as means ± SD of three independent experiments. […] Then, cell viability, apoptosis, autophagy and senescence were detected as described in the Materials and methods. […] Res: Resveratrol; 3-MA: 3-methyladenine; DEVD: Ac-DEVD-CHO. The antiproliferative effects of the treatments were evaluated using the MTT assay. Cells were seeded at a density of 4 × 10^3 cells/well in 96-well plates. […] Then, MTT assays were performed as described previously. […] The different drug doses were combined using constant ratios of the IC50 values calculated from the previous cytotoxicity tests. […] The effects of different drug combinations were evaluated using the CompuSyn software (Biosoft, Ferguson, MO, USA) based on the median effect model of Chou and Talay[43].

[2] = tested on: PC9/G cells; assay: SA-β-gal senescence assay; assay type: cell-based, human; settings: Gef 1 μM alone or combined with Res 40 μM, 72 h
Protocol: (§1) Figure 4 Res enhanced Gef-induced apoptosis, autophagy, G2/M phase cell cycle arrest, and senescence in PC9/G cells. […] (A) Morphological changes in PC9/G cells including nuclei condensation and fragmentation (arrow) were observed by DAPI staining under a fluorescence microscope. (B) Annexin V-FITC/PI staining assay of PC9/G cells was analysed by flow cytometry. (C) Autophagy was detected by MDC staining, and (D) fluorescence intensity was detected by flow cytometry. (E) Cells were stained with PI, and then the DNA content was analysed by flow cytometry. Sub-G1, G1, S and G2/M indicate different cell cycle phases. (F) Cells were stained for SA-β-Gal activity. The percentage of senescent cells in PC9/G cells was measured. Magnification: 200× .
Cell senescence was measured following the manufacturer’s protocol of the SA-β-gal assay kit. According to the protocol, cells were fixed with 2% paraformaldehyde for 15 min at room temperature and then incubated with fresh SA-β-gal stain solution in the dark at 37 °C overnight. SA-β-gal-positive cells were quantified by counting stained and unstained cells, and the result is presented as the ratio of SA-β-gal-positive cells over the total cells counted.

[3] = tested on: PC9/G cells; assay: Annexin V-FITC/PI apoptosis assay by flow cytometry; assay type: cell-based, human; settings: Gef 1 μM alone or combined with Res 40 μM, 72 h
Protocol: as §1
For apoptosis analysis, cells were washed twice with 1× binding buffer then labelled with Annexin V and propidium iodide (PI) following the manufacturer’s instructions. The Apoptosis Analysis Kit was ordered from Tianjin Sungene Biotech (Tianjing, China). For cell cycle analysis, cells were washed twice with ice-cold PBS and fixed with 70% ethanol at −20 °C overnight. […] The analysis of the samples was performed by flow cytometry (Becton-Dickinson, San Jose, CA, USA), and the acquired data were analysed with the CellQuest software (BD Biosciences).

[4] = tested on: HCC827 cells; assay: MTT cell growth inhibition assay in HCC827 cells; assay type: cell-based; settings: Homo sapiens
Protocol: (§2) The antiproliferative effects of the treatments were evaluated using the MTT assay. Cells were seeded at a density of 4 × 10^3 cells/well in 96-well plates. […] Then, MTT assays were performed as described previously.
(§3) are shown as means ± SD of three independent experiments.

[5] = tested on: A549 cells; assay: MTT cell growth inhibition assay in A549 cells; assay type: cell-based; settings: Homo sapiens
Protocol: as §2, §3

[6] = tested on: H1299 cells; assay: MTT cell growth inhibition assay in H1299 cells; assay type: cell-based; settings: Homo sapiens, NCI-H1299
Protocol: as §2, §3

[7] = tested on: PC9 cells; assay: MTT cell growth inhibition assay in PC9 cells; assay type: cell-based; settings: Homo sapiens, PC-9, single drug, 72 h
Protocol: Then, MTT assays were performed as described previously.

[8] = tested on: HCC827/G cells; assay: MTT cell growth inhibition assay in HCC827/G cells; assay type: cell-based; settings: Homo sapiens
Protocol: as §2, §3

[9] = tested on: H1975 cells; assay: MTT cell growth inhibition assay in H1975 cells; assay type: cell-based; settings: Homo sapiens, NCI-H1975
Protocol: as §2, §3

`Cn1cnc(N)c2ncnc1-2` [3-MA, 3-methyladenine] was tested, and the “effect on cell viability when combined with Gef + Res treatment” value ([1]; PC9/G cells) was “significantly potentiated the reduction of cell viability”.

In the case of `COc1cc2ncnc(Nc3ccc(F)c(Cl)c3)c2cc1OCCCN1CCOCC1` [Gef, Gefitinib], the “proportion of SA-β-gal-positive cells” value [2] is reported as 11.4 ± 1.6% and the apoptosis rate [3] is reported as 9.77 ± 2.96.

In the case of `Oc1ccc(/C=C/c2cc(O)cc(O)c2)cc1` [Res, Resveratrol], the IC50 [4] is reported as 73.4 ± 4.32 µM, the IC50 [5] is reported as 72.4 ± 2.76 µM and the IC50 [6] is reported as 88.8 ± 1.62 µM. It also gave an IC50 ([1]; Homo sapiens) of 33.9 ± 1.6 µM, an IC50 [7] of 82.5 ± 10 µM and an IC50 [8] of 42.9 ± 3.54 µM. It also gave an IC50 [9] of 74.6 ± 2.03 µM.

For Ac-DEVD-CHO, the “toxic effect on cell viability, alone” value ([1]; PC9/G cells, 3-MA 5 mM or DEVD 10 nM alone) was “no toxic effects” and the “effect on cell viability when combined with Gef + Res treatment” value ([1]; PC9/G cells) was “no effect”.
